The subject of data set [1] is P-gp (human MDR1). Put plainly: in vitro. The settings on record: dog; for Papp A→B at 5 µM / Papp B→A at 5 µM: MDCK-MDR1; for efflux ratio at 5 µM: MDCK-MDR1, Efflux ratio B-A/A-B, MDCK-MDR1, 5 µM, N = 2.
The conditions of data set [2]: human.
Data set [3] in a line: Log D(dec/w) shake flask partition coefficient. The data set is classed as physicochemical. The settings on record: 1,9-decadiene and PBS pH 7.4 shake flask partition coefficient; for logD hydrocarbon water: 1,9-decadiene/PBS.
Data set [4] concerns the target T1, VHL (VCB, VHL:ElonginC:ElonginB) (Homo sapiens, UniProt P40337).
T1 construct: His6 (N, cleaved yes); made in house; host or cells: Escherichia coli
Put plainly: FP competition binding, binary binding to VHL.

Setting [5] is: compound alone to VHL, FP competition with FAM-HIF-1α peptide, mean ± SEM, read-out: Kd binary.

Where two headings read alike, the source gives them in different places.
For Plasma stability in this document: time not given here.

Turning to `COCC(=O)NCCCCCC(=O)N[C@H](C(=O)N1C[C@H](O)C[C@H]1C(=O)NCc1ccc(-c2scnc2C)cc1)C(C)(C)C` [Compound 1, (2S,4R)-4-Hydroxy-1-((S)-2-(6-(2-methoxyacetamido)hexanamido)-3,3-dimethylbutanoyl)-N-(4-(4-methylthiazol-5-yl)benzyl)pyrrolidine-2-carboxamide], in data set [1], the Papp A→B at 5 µM was 0.5 ×10⁻⁶ cm/s, the Papp B→A at 5 µM was 1.7 ×10⁻⁶ cm/s and the efflux ratio at 5 µM stood at 3. This compound also showed a Plasma stability in data set [2] of 126 ± 4%. Moreover, the logD hydrocarbon water in data set [3] was -2.2.

As for `CCCC(=O)NCCCCCC(=O)N[C@H](C(=O)N1C[C@H](O)C[C@H]1C(=O)NCc1ccc(-c2scnc2C)cc1)C(C)(C)C` [Compound 2, (2S,4R)-1-((S)-2-(6-Butyramidohexanamido)-3,3-dimethylbutanoyl)-4-hydroxy-N-(4-(4-methylthiazol-5-yl)benzyl)pyrrolidine-2-carboxamide], in data set [1], the Papp A→B at 5 µM came out at 0.4 ×10⁻⁶ cm/s, the apparent permeability from basolateral to apical (Papp B→A) at 5 µM is 2.9 ×10⁻⁶ cm/s and the efflux ratio at 5 µM turned out to be 7. The compound further showed a Plasma stability in data set [2] of 83 ± 5%. Moreover, the logD hydrocarbon water in data set [3] was -2.2.

For `Cc1ncsc1-c1ccc(CNC(=O)[C@@H]2C[C@@H](O)CN2C(=O)[C@@H](NC(=O)CCCCCNC(=O)Cc2ccccc2)C(C)(C)C)cc1` [Compound 3, (2S,4R)-1-((S)-3,3-Dimethyl-2-(6-(2-phenylacetamido)hexanamido)butanoyl)-4-hydroxy-N-(4-(4-methylthiazol-5-yl)benzyl)pyrrolidine-2-carboxamide], in data set [1], the apparent permeability from apical to basolateral (Papp A→B) at 5 µM is 0.7 ×10⁻⁶ cm/s, the Papp B→A at 5 µM was found to be 8.4 ×10⁻⁶ cm/s and the efflux ratio at 5 µM turned out to be 12. The Plasma stability in data set [2] was 130 ± 3%. In addition, the dissociation constant Kd in data set [4] (setting [5]) was 119 nM. The compound also had a logD hydrocarbon water in data set [3] of -1.5.

On to `Cc1ncsc1-c1ccc(CNC(=O)[C@@H]2C[C@@H](O)CN2C(=O)[C@@H](NC(=O)CCCCCNC(=O)C2CCCCC2)C(C)(C)C)cc1` [Compound 4, (2S,4R)-1-((S)-2-(6-(Cyclohexanecarboxamido)hexanamido)-3,3-dimethylbutanoyl)-4-hydroxy-N-(4-(4-methylthiazol-5-yl)benzyl)pyrrolidine-2-carboxamide], for which, in data set [1], the apical-to-basolateral permeability (Papp A→B) at 5 µM amounted to 0.3 ×10⁻⁶ cm/s, the apparent permeability from basolateral to apical (Papp B→A) at 5 µM came out at 10.3 ×10⁻⁶ cm/s and the efflux ratio at 5 µM came to 33. This compound also gave a Plasma stability in data set [2] of 168 ± 20%. The same compound returned a logD hydrocarbon water in data set [3] of -1.4.

With `Cc1ncsc1-c1ccc(CNC(=O)[C@@H]2C[C@@H](O)CN2C(=O)[C@@H](NC(=O)CCCCCNC(=O)CC23CC4CC(CC(C4)C2)C3)C(C)(C)C)cc1` [Compound 5, (2S,4R)-1-((S)-2-(6-(2-(Adamantan-1-yl)acetamido)hexanamido)-3,3-dimethylbutanoyl)-4-hydroxy-N-(4-(4-methylthiazol-5-yl)benzyl)pyrrolidine-2-carboxamide], in data set [1], the Papp A→B at 5 µM amounted to 0.2 ×10⁻⁶ cm/s, the apparent permeability from basolateral to apical (Papp B→A) at 5 µM stood at 23.7 ×10⁻⁶ cm/s and the efflux ratio at 5 µM is 158. Moreover, in data set [2], the Plasma stability turned out to be 74 ± 8%. The compound also gave a logD hydrocarbon water in data set [3] of -0.2.

On to `Cc1ncsc1-c1ccc(CNC(=O)[C@@H]2C[C@@H](O)CN2C(=O)[C@@H](NC(=O)CCCCCNC(=O)CC(c2ccccc2)c2ccccc2)C(C)(C)C)cc1` [Compound 6, (2S,4R)-1-((S)-2-(6-(3,3-Diphenylpropanamido)hexanamido)-3,3-dimethylbutanoyl)-4-hydroxy-N-(4-(4-methylthiazol-5-yl)benzyl)pyrrolidine-2-carboxamide], for which, in data set [1], the Papp A→B at 5 µM was 0.1 ×10⁻⁶ cm/s, the basolateral-to-apical permeability (Papp B→A) at 5 µM was found to be 18.5 ×10⁻⁶ cm/s and the efflux ratio at 5 µM stood at 133. This compound returned a Plasma stability in data set [2] of 149 ± 9%. Also, the logD hydrocarbon water in data set [3] was -0.3.

`CCCCOc1ccc(-c2ccc(C(=O)NCCCCCC(=O)N[C@H](C(=O)N3C[C@H](O)C[C@H]3C(=O)NCc3ccc(-c4scnc4C)cc3)C(C)(C)C)cc2)cc1` [Compound 7, (2S,4R)-1-((S)-2-(6-(4′-Butoxy-[1,1′-biphenyl]-4-carboxamido)hexanamido)-3,3-dimethylbutanoyl)-4-hydroxy-N-(4-(4-methylthiazol-5-yl)benzyl)pyrrolidine-2-carboxamide] registered an apparent permeability from basolateral to apical (Papp B→A) at 5 µM in data set [1] of 0.2 ×10⁻⁶ cm/s. Also, in data set [2], the Plasma stability was found to be 83 ± 14%. Besides, in data set [3], the logD hydrocarbon water was found to be 1.

In the case of `Cc1ncsc1-c1ccc(CNC(=O)[C@@H]2C[C@@H](O)CN2C(=O)[C@@H](NC(=O)CCCCCOC(=O)Cc2ccccc2)C(C)(C)C)cc1` [Compound 10, 6-(((S)-1-((2S,4R)-4-Hydroxy-2-((4-(4-methylthiazol-5-yl)benzyl)carbamoyl)pyrrolidin-1-yl)-3,3-dimethyl-1-oxobutan-2-yl)amino)-6-oxohexyl 2-phenylacetate], in data set [4] (setting [5]), the dissociation constant (Kd) was 136 nM.

Regarding `CCCCOc1ccc(-c2ccc(C(=O)OCCCCCC(=O)N[C@H](C(=O)N3C[C@H](O)C[C@H]3C(=O)NCc3ccc(-c4scnc4C)cc3)C(C)(C)C)cc2)cc1` [Compound 14, 6-(((S)-1-((2S,4R)-4-Hydroxy-2-((4-(4-methylthiazol-5-yl)benzyl)carbamoyl)pyrrolidin-1-yl)-3,3-dimethyl-1-oxobutan-2-yl)amino)-6-oxohexyl 4′-butoxy-[1,1′-biphenyl]-4-carboxylate], the Plasma stability in data set [2] worked out at 119 ± 28%. In data set [3], the “LogD (dec/w)” value was “BLD^h”.

For `Cc1ncsc1-c1ccc(CNC(=O)[C@@H]2C[C@@H](O)CN2C(=O)[C@@H](NC(=O)CCOCCNC(=O)Cc2ccccc2)C(C)(C)C)cc1` [Compound 15, (2S,4R)-1-((S)-3,3-Dimethyl-2-(3-(2-(2-phenylacetamido)ethoxy)propanamido)butanoyl)-4-hydroxy-N-(4-(4-methylthiazol-5-yl)benzyl)pyrrolidine-2-carboxamide], in data set [1], the apparent permeability from apical to basolateral (Papp A→B) at 5 µM was 0.4 ×10⁻⁶ cm/s, the Papp B→A at 5 µM came to 4.6 ×10⁻⁶ cm/s and the efflux ratio at 5 µM was determined as 13. In data set [2], this compound returned a Plasma stability of 103 ± 14%. Besides, the dissociation constant (Kd) in data set [4] (setting [5]) came to 171 ± 14 nM. This compound displayed a logD hydrocarbon water in data set [3] of -1.4.

`Cc1ncsc1-c1ccc(CNC(=O)[C@@H]2C[C@@H](O)CN2C(=O)[C@@H](NC(=O)CCOCCOCCNC(=O)Cc2ccccc2)C(C)(C)C)cc1` [Compound 16, (2S,4R)-1-((S)-14-(tert-Butyl)-2,12-dioxo-1-phenyl-6,9-dioxa-3,13-diazapentadecan-15-oyl)-4-hydroxy-N-(4-(4-methylthiazol-5-yl)benzyl)pyrrolidine-2-carboxamide] registered a basolateral-to-apical permeability (Papp B→A) at 5 µM in data set [1] of 3.3 ×10⁻⁶ cm/s. In addition, the Plasma stability in data set [2] is 151 ± 30%. In addition, in data set [4] (setting [5]), the Kd was determined as 172 ± 17 nM. The compound further yielded a logD hydrocarbon water in data set [3] of -2.3.

In data set [1], `Cc1ncsc1-c1ccc(CNC(=O)[C@@H]2C[C@@H](O)CN2C(=O)[C@@H](NC(=O)CCOCCOCCOCCNC(=O)Cc2ccccc2)C(C)(C)C)cc1` [Compound 17, (2S,4R)-1-((S)-17-(tert-Butyl)-2,15-dioxo-1-phenyl-6,9,12-trioxa-3,16-diazaoctadecan-18-oyl)-4-hydroxy-N-(4-(4-methylthiazol-5-yl)benzyl)pyrrolidine-2-carboxamide] showed an apparent permeability from basolateral to apical (Papp B→A) at 5 µM of 2 ×10⁻⁶ cm/s. The Plasma stability in data set [2] came out at 133 ± 18%. Also, the equilibrium dissociation constant (Kd) in data set [4] (setting [5]) is 138 nM. Moreover, the logD hydrocarbon water in data set [3] is -1.9.

As to `Cc1ncsc1-c1ccc(CNC(=O)[C@@H]2C[C@@H](O)CN2C(=O)[C@@H](NC(=O)CCOCCOC(=O)Cc2ccccc2)C(C)(C)C)cc1` [Compound 18, 2-(3-(((S)-1-((2S,4R)-4-Hydroxy-2-((4-(4-methylthiazol-5-yl)benzyl)carbamoyl)pyrrolidin-1-yl)-3,3-dimethyl-1-oxobutan-2-yl)amino)-3-oxopropoxy)ethyl 2-phenylacetate], the dissociation constant (Kd) in data set [4] was 232 ± 47 nM; in data set [4] (setting [5]) it was about 200 nM.

In the case of `Cc1ncsc1-c1ccc(CNC(=O)[C@@H]2C[C@@H](O)CN2C(=O)[C@@H](NC(=O)CCOCCOCCOC(=O)Cc2ccccc2)C(C)(C)C)cc1` [Compound 19, 2-(2-(3-(((S)-1-((2S,4R)-4-Hydroxy-2-((4-(4-methylthiazol-5-yl)benzyl)carbamoyl)pyrrolidin-1-yl)-3,3-dimethyl-1-oxobutan-2-yl)amino)-3-oxopropoxy)ethoxy)ethyl 2-phenylacetate], the Kd in data set [4] (setting [5]) is 197 ± 27 nM.

`Cc1ncsc1-c1ccc(CNC(=O)[C@@H]2C[C@@H](O)CN2C(=O)[C@@H](NC(=O)CCOCCOCCOCCOC(=O)Cc2ccccc2)C(C)(C)C)cc1` [Compound 20, (S)-14-((2S,4R)-4-Hydroxy-2-((4-(4-methylthiazol-5-yl)benzyl)carbamoyl)pyrrolidine-1-carbonyl)-15,15-dimethyl-12-oxo-3,6,9-trioxa-13-azahexadecyl 2-phenylacetate]: the Kd in data set [4] (setting [5]) was 144 nM.

Take `C[C@H]1O[C@@H](O[C@H]2[C@@H](O)C[C@H](O[C@H]3[C@@H](O)C[C@H](O[C@H]4CC[C@@]5(C)[C@H](CC[C@@H]6[C@@H]5C[C@@H](O)[C@]5(C)[C@@H](C7=CC(=O)OC7)CC[C@]65O)C4)O[C@@H]3C)O[C@@H]2C)C[C@H](O)[C@@H]1O` [Digoxin, reference compound]: in data set [1], the Papp A→B at 5 µM amounted to 0.8 ×10⁻⁶ cm/s, the Papp B→A at 5 µM worked out at 21.5 ×10⁻⁶ cm/s and the efflux ratio at 5 µM is 26.3.

With `CC(C)NCC(O)COc1cccc2ccccc12` (stereo not shown) [Propranolol, reference compound], in data set [1], the Papp A→B at 5 µM came out at 49.1 ×10⁻⁶ cm/s, the Papp B→A at 5 µM was 41.6 ×10⁻⁶ cm/s and the efflux ratio at 5 µM is 0.8.

Broadly, the Papp A→B is how fast a substance crosses the layer from the apical side. Read a high Papp A→B as fast passage. By Papp B→A is commonly meant how fast a substance crosses the layer from the basolateral side. What is called efflux ratio is the permeability from basolateral to apical divided by that in the opposite direction, in the common usage. In general, Kd refers to the free concentration of one partner at which half of the binding sites on the other are occupied at equilibrium, for simple one-to-one binding.

These data come from publication PMC8713283 (Journal of Medicinal Chemistry, 2021).
